Data: patent US20230228760A1, “INTRACELLULAR KINASE ASSOCIATED WITH RESISTANCE AGAINST T-CELL MEDIATED CYTOTOXICITY, AND USES THEREOF” (iOmx Therapeutics AG, priority 2020, published 2023)

B1: TRAIL: recombinant human TNF-related apoptosis-inducing ligand (protein, UniProt P50591 1-281, looked up)
Tumor necrosis factor ligand …: MAMMEVQGGPSLGQTCVLIVIFTVLLQSLCVAVTYVYFTNELKQMQDKYSKSGIACFLKEDDSYWDPNDEESMNSPCWQVKWQLRQLVRKMILRTSEETISTVQEKQQNISPLVRERGPQRVAAHITGTRGRSNTLSSPNSKNEKALGRKINSWESSRSGHSFLSNLHLRNGELVIHEKGFYYIYSQTYFRFQEEIKENTKNDKQMVQYIYKYTSYPDPILLMKSARNSCWSKDAEYGLYSIYQGGIFELKENDRIFVSVTNEHLIDMDHEASFFGAFLVG
B2: FasL (protein)
chain: PSPPPEKKELRKVAHLTGKSNSRSMPLEWEDTYGIVLLSGVKYKKGGLVINETGLYFVYSKVYFRGQSCNNLPLSHKVYMRNSKYPQDLVMMEGKMMSYCTTGQMWARSSYLGAVFNLTSADHLYVNVSELSLVNFEESQTFFGLYKL

How the values were obtained:
CAMK1D mRNA = CAMK1D mRNA knockdown by qPCR; type: cell-based, human; conditions: KMM-1 cells, 48h after transfection, normalized to β-actin
Procedure: Gene expression was measured using end-point PCR. Briefly, total RNA was isolated from cell pellets using the RNeasy Mini kit (Qiagen) according to the manufacturer's guidelines. 1 μg of RNA was reverse transcribed to complementary DNA (cDNA) using the QuantiTect reverse transcription kit (Qiagen) according to the manufacturer's protocol. Synthesized cDNA was amplified using conventional PCR. PCR samples were set up in a 25 μL volume using 2×MyTaq HS Red Mix (Bioline), 500 nM of gene-specific primer mix and 100 ng of template cDNA. The PCR program was set as the following: 95° C. for 3 min, 35 cycles of 3 repetitive steps of denaturation (95° C. for 30 s), annealing (60° C. for 30 s) and extension (72° C. for 30 s), and a final step at 72° C. for 5 min. PCR products were run on a 2% agarose gel in TAE buffer using a gel electrophoresis system (Thermo Scientific) and DNA bands were visualized using UV light of myECL Imager (Thermo Scientific). Knockdown efficiency of siRNA sequences was measured by quantitative PCR (qPCR). For qPCR, 10 ng of template cDNA, 2× QuantiFast SYBR Green PCR mix (Qiagen) and 300 nM of gene-specific primer mix was used per 20 μL reaction and each sample was prepared in triplicates. Reactions were run using the QuantStudio 3 (Applied Biosystems). Expression of several genes was normalized to the expression of β-actin gene and the analysis was performed using comparative Ct method.
Gene knockdown in tumor cells was induced using reverse siRNA transfection with Lipofectamine RNAiMAX (Thermo Scientific). Briefly, 200 μL of 250 nM siRNA solution was added to each well of a 6-well plate. 4 μl of RNAiMAX transfection reagent was diluted in 196 μL of RPMI (Sigma-Aldrich) and incubated for 10 min at room temperature (RT). 400 μL of additional RPMI was added and 600 μL of RNAiMAX mix was given to the siRNA coated wells and incubated for 30 min at RT. 3.5×10^5 KMM-1 (WT or luc) cells were resuspended in 1.2 mL of antibiotic-free RPMI culture medium supplemented with 10% FCS, seeded in the siRNA-RNAiMAX containing wells and incubated for 48 h at 37° C., 5% CO2. […]

KMM-1-luc cells [1] = test: luciferase-based cytotoxicity assay of siRNA-transfected tumour cells co-cultured with MILs; type: cell-based, human; conditions: for T cell mediated cytotoxicity: co-culture with MILs, 10:1 E:T ratio; for viability impact of siRNA per se: viability setting, culture medium instead of T cells
Procedure: (§1) Gene knockdown in tumor cells was induced using reverse siRNA transfection with Lipofectamine RNAiMAX (Thermo Scientific). Briefly, 200 μL of 250 nM siRNA solution was added to each well of a 6-well plate. 4 μl of RNAiMAX transfection reagent was diluted in 196 μL of RPMI (Sigma-Aldrich) and incubated for 10 min at room temperature (RT). 400 μL of additional RPMI was added and 600 μL of RNAiMAX mix was given to the siRNA coated wells and incubated for 30 min at RT. 3.5×10^5 KMM-1 (WT or luc) cells were resuspended in 1.2 mL of antibiotic-free RPMI culture medium supplemented with 10% FCS, seeded in the siRNA-RNAiMAX containing wells and incubated for 48 h at 37° C., 5% CO2. Final siRNA concentration was 25 nM in all cases.
(§2) KMM-1-luc cells were reverse transfected with the desired siRNA sequences in white 96-well-plate (Perkin Elmer) and incubated for 48 h at 37° C., 5% CO2. At the same day of transfection MILs were thawn and treated with benzonase (too IU/mL) (Merck). Cell density was adjusted to 0.6×10^6 cells/mL in CLM supplemented with 3000 IU/mL rhuIL-2 (Novartis) for 48 h. IL-2 was depleted 24 h before the co-culture. Flu TC were thawn 6 h before co-culture. For the cytotoxicity setting, MILs, flu TC, the supernatant of activated MILs or rHuFasL were added to transfected tumor cells at desired E:T ratio/concentration, and incubated for 20 h at 37° C., 5% CO2. For the viability setting, only CLM was added to the tumor cells. After co-culture, supernatant was removed, remaining tumor cells were lysed using 40 μL/well of cell lysis buffer for 10 min. After tumor cell lysis, 60 μL/well of luciferase assay buffer was added and luciferase intensity was measured by using the Spark 20M plate reader (Tecan) with a counting time of 100 msec. Luciferase activities (relative luminescence units=RLUs) were either represented as raw luciferase values or as normalized data to scramble or unstimulated controls.

CAMK1D = CAMK1D protein knockdown by western blot; type: cell-based, human; conditions: KMM-1 cells, 48h after transfection
Procedure: as §1
30 μg of protein lysates were denaturated in 4×NuPAGE LDS Sample Buffer (Thermo Scientific) containing 100% ß-mercaptoethanol (PAN) at 70° C. for 10 min. Samples were spun down and separated on NuPAGE 4-12% Bis-Tris Gels (Thermo Scientific) along with PageRuler Prestained Protein Ladder (Thermo Scientific) and run at 115-150 V for 90 min.
Proteins were transferred from the gel to a PVDF membrane (Millipore) using a semi-dry western blot method. The PVDF blotting membrane (Merck Millipore) was activated in 100% methanol (Merck Millipore) for 1 min and afterwards placed in Transfer Buffer (Thermo Science) until use. Blots were assembled from anode to cathode into the Pierce Power Blot cassette (Thermo Scientific) and run at 24 V for 10 min. Membranes were washed in ix TBS and then placed in blocking solution (5% BSA/0.05% TBST) for 2 h. […] The blots were incubated with the ECL Detection Reagent (Reagent A and Reagent B, 1:1, GE Healthcare) for 4 min and the chemiluminescence was detected with myECL Imager (Thermo Scientific).

Mel270 cells = test: blocking assay: CAMK1D inhibitor plus rHuFasL, luciferase-based cytotoxicity assay; type: cell-based, human; conditions: Mel270 uveal melanoma cells; rHuFasL 100 ng/mL, 20 h
Procedure: as §2, with “controls. For the experiments using the anti-Calmodulin (W7) (Tocris) inhibitor, 1×10^4 KMM-1-luc (scr or CAMK1D-transfected) cells/well were seeded in white 96 well plates (Perkin Elmer) in 100 μL of RPMI 10% FCS. […]” for “controls.”

KMM-1-luc cells [2] = test: as above; type: cell-based, human; conditions: KMM-1 multiple myeloma cells; rHuFasL 100 ng/mL, 20 h
Procedure: as §2, with “controls. For the experiments using the anti-Calmodulin (W7) (Tocris) inhibitor, 1×10^4 KMM-1-luc (scr or CAMK1D-transfected) cells/well were seeded in white 96 well plates (Perkin Elmer) in 100 μL of RPMI 10% FCS. […]” for “controls.”

[3] = molecular target: T1, recombinantly expressed CAMK1D protein kinase (Homo sapiens, UniProt Q8IU85); test: radiometric protein kinase assay (33PanQinase Activity Assay) of CAMK1D kinase activity; type: biochemical; conditions: 10 concentrations (1x10-05 M to 3x10-10 M), singlicate; read-out: IC50 of CAMK1D kinase inhibition
T1 construct: purchased ProQinase (Freiburg, Germany)
Procedure: QPP was identified as CAMK1D inhibitor in a radiometric protein kinase assay (PanQinase® Activity Assay) used for measuring the kinase activity of a recombinantly expressed CAMK1D protein kinase. All assays were performed with a BeckmanCoulter/SAGIAN™ Core System.

KMM-1-luc cells [4] = test: blocking assay: CaM inhibitor (W7) with or without rHuFasL, luciferase-based cytotoxicity assay; type: cell-based, human
Procedure: as §2
For the experiments using the anti-Calmodulin (W7) (Tocris) inhibitor, 1×10^4 KMM-1-luc (scr or CAMK1D-transfected) cells/well were seeded in white 96 well plates (Perkin Elmer) in 100 μL of RPMI 10% FCS. The small molecule inhibitor was added at the indicated concentrations for 1 h at 37° C., before 100 ng/mL rHuFasL or medium control was added. DMSO treatment served as negative control. After 20 h stimulation, luciferase-based cytotoxicity assay was performed. For CAMK1D inhibition, 1×10^4 KMM-1-luc or 1×10^4 Mel270 cells/well were incubated overnight in a 96 well plate. OMX2001 was added at the indicated concentrations 1 h before rHuFasL stimulation (100 ng/mL) or medium control. DMSO treatment served as negative control. After 20h stimulation, luciferase-based cytotoxicity assay was performed.

KMM-1-luc cells [5] = test: treatment of scr or siCAMK1D transfected cells with recombinant FasL, TRAIL or TNF, luciferase activity; type: cell-based, human; conditions: siCAMK1D transfected KMM-1, 20h treatment
Procedure: as §2

| Molecule | CAMK1D expression at mRNA level (CAMK1D mRNA) | T cell mediated cytotoxicity (KMM-1-luc cells [1]) | viability impact of siRNA per se (KMM-1-luc cells [1]) | CAMK1D expression at protein level (CAMK1D) | other results |
| --- | --- | --- | --- | --- | --- |
| s3: siRNA targeting hCAMK1D, CCGAAAAUCUCUUGUACUA, Dharmacon D-004946-03, SEQ ID NO. 5 (listed as RNA, chemistry not given here) | significantly reduced CAMK1D expression | increased T cell mediated cytotoxicity | no viability impact | significantly reduced CAMK1D expression |  |
| s1: siRNA targeting hCAMK1D, UGAAGUGUAUCCCUAAGAA, Dharmacon D-004946-01, SEQ ID NO. 3 (chemistry not given here) | significantly reduced CAMK1D expression | increased T cell mediated cytotoxicity | no viability impact | significantly reduced CAMK1D expression |  |
| Cc1cc(Nc2nc(-c3ccccc3)nc3ccccc23)n[nH]1 [QPP, (5-Methyl-1H-pyrazol-3-yl)-(2-phenylquinazolin-4-yl)amine] |  |  |  |  | tumour cell viability (luciferase intensity) after inhibitor plus recombinant FasL (Mel270 cells): induced a significant tumour cell viability; tumour cell viability (luciferase intensity) after inhibitor plus recombinant FasL (KMM-1-luc cells [2]): induced a significant tumour cell viability; IC50 [3]: 2.94 µM |
| Cl.NCCCCCCNS(=O)(=O)c1cccc2c(Cl)cccc12 [W-7 hydrochloride] |  |  |  |  | effect on FasL induced tumour cell apoptosis (KMM-1-luc cells [4]; 5 μM, with rHuFasL): sharply recapitulated the effect of CAMK1D silencing; toxicity to KMM-1 cells (tumour cell survival by luciferase intensity) (KMM-1-luc cells [4]; 5 μM, without rHuFasL): not toxic; further increase of FasL-mediated tumour cell killing (KMM-1-luc cells [4]; combination of W-7 hydrochloride with CAMK1D silencing, after FasL exposure): 3 fold |
| s2: siRNA targeting hCAMK1D, CAAAUCACCUGUACUUGGU, Dharmacon D-004946-02, SEQ ID NO. 4 (listed as RNA, chemistry not given here) | significantly reduced CAMK1D expression | increased T cell mediated cytotoxicity | no viability impact | significantly reduced CAMK1D expression |  |
| B1 |  |  |  |  | reduction of CAMK1D-deficient tumour cells after exposure (KMM-1-luc cells [5]): to a much lesser degree |
| B2 |  |  |  |  | reduction of CAMK1D-deficient tumour cells after exposure (KMM-1-luc cells [5]): dramatically reduced |
